Results reported in US7625713B2, “Process for identifying a ligand that binds to the NEP binding site for the SMR1 pentapeptide” (Institut Pasteur, priority 2000, dated 2009).
Where a SMILES comes first, the peptide text is derived from it.

Test system: male rats
Test: Pin pain test
Format: in vivo, rat
Protocol: The 3-min test session was performed 5 min after intravenous. rat tail vein administration of sialorphin or its vehicle. Naloxone (0.3 mg per kg body weight) was injected subcutaneously 15 min before sialorphin administration. Time in centre field sector (FIG. 6-C) (central square of the open-field without pin) and activity (FIGS. 6-A and 6-B) in peripheral squares (overlayed with pins) during the 3-min test session. Each value represents the mean±sem of 8 animals per group. […] Control group corresponded to pain response in vehicle-treated rats. 50 μg/kg sialorphin, 100 μg/kg sialorphin, 100 μg/kg sialorphin plus naloxone 0.3 mg/kg.
To extend the insight into the in vivo possible antinociceptive property of sialorphin through enkephalin-degrading enzyme inhibition, its effects were assessed in rat model of pain, i.e. the pin pain test, (Hebert et al. (1999) Physiology & Behavior 67, 99-105) in which the various behavioural parameters of pain responses were recorded with a 3-min cutoff time.
The in vivo activity of sialorphin was tested on the pin pain assay using male rats (350-400 g, Charles Rivers). The experimental device consists in an open-field (45×45×40 cm) which is divided into nine equal squares (150×150 mm), eight of them are peripheral and one is central. The peripheral squares are overlayed with stainless steel pins (2/cm2, length 8 mm and diameter 0.6 mm). The test consisted in placing the rat in the central square of the open-field and recording its different behaviours (cut-off time, 3 min). Two days before the pain test, the rats were familiarised with the experimental device without pins for 20 min, so as to reduce the stress linked to the spatial neophobia. All statistical analyses were carried out using the Statview 5 statistical package.

[1] = 100 μg per kg intravenous, 3-min trial, n=8, mean±sem

## N=C(N)NCCC[C@H](NC(=O)[C@@H]1CCCN1C(=O)[C@H](CC(N)=O)NC(=O)[C@H](Cc1c[nH]cn1)NC(=O)[C@@H](N)CCC(N)=O)C(=O)O [sialorphin, Gln-His-Asn-Pro-Arg] (H-QHNPR-OH; N-terminus and C-terminus assumed)
100 μg per kg intravenous, 3-min trial 5 min after administration, n=8, mean±sem
  frequency of crossings peripheral squares: 11.13±1.43
[1]
  number of audible vocalisation responses: 0.25±0.16
  number of escape responses: 0.13±0.13
  rearings on peripheral squares: 3.88±0.83
100 μg/kg given intravenously
  analgesia: 74-97%
Sialorphin intravenous alone, second test trial, 3-min test
  time in the central area of the open-field: 57.75 ± 21.30 s
